Assay results published in ChEMBL document CHEMBL3046342, “Synthesis of steroidal thiazolidinones as antibacterial agents based on the in vitro and quantum chemistry calculation” (2013).
Converted amounts (≈) assume the structure as drawn.

Experiments:
Format in all cases: functional
Escherichia coli [1] = test: Antibacterial activity against Escherichia coli ATCC 49696 assessed as growth inhibition at 10 to 100 ug/uL after 18 hr by disk diffusion method
Salmonella typhimurium [2] = test: Antibacterial activity against Salmonella enterica subsp. enterica serovar Typhimurium ATCC 13311 assessed as growth inhibition at 10 to 100 ug/uL after 18 hr by disk diffusion method
Streptococcus pyogenes [3] = test: Antibacterial activity against Streptococcus pyogenes ATCC 12384 assessed as growth inhibition at 10 to 100 ug/uL after 18 hr by disk diffusion method
Staphylococcus aureus [4] = test: Antibacterial activity against Staphylococcus aureus ATCC 13150 assessed as growth inhibition at 10 to 100 ug/uL after 18 hr by disk diffusion method
Escherichia coli [5] = test: Antibacterial activity against Escherichia coli ATCC 49696 assessed as growth inhibition after 18 hr by microbroth dilution method; details: ATCC 49696, 18 h
Salmonella typhimurium [6] = test: Antibacterial activity against Salmonella enterica subsp. enterica serovar Typhimurium ATCC 13311 assessed as growth inhibition after 18 hr by microbroth dilution method; details: ATCC 13311, 18 h
Streptococcus pyogenes [7] = test: Antibacterial activity against Streptococcus pyogenes ATCC 12384 assessed as growth inhibition after 18 hr by microbroth dilution method; details: ATCC 12384, 18 h
Staphylococcus aureus [8] = test: Antibacterial activity against Staphylococcus aureus ATCC 13150 assessed as growth inhibition after 18 hr by microbroth dilution method; details: ATCC 13150, 18 h
Escherichia coli [9] = test: Antibacterial activity against Escherichia coli ATCC 49696 assessed as growth inhibition at 30 ug/disk after 18 hr by disk diffusion method; details: ATCC 49696, 18 h, read-out: IZ
Salmonella typhimurium [10] = test: Antibacterial activity against Salmonella enterica subsp. enterica serovar Typhimurium ATCC 13311 assessed as growth inhibition at 30 ug/disk after 18 hr by disk diffusion method; details: ATCC 13311, 18 h, read-out: IZ
Streptococcus pyogenes [11] = test: Antibacterial activity against Streptococcus pyogenes ATCC 12384 assessed as growth inhibition at 30 ug/disk after 18 hr by disk diffusion method; details: ATCC 12384, 18 h, read-out: IZ
Staphylococcus aureus [12] = test: Antibacterial activity against Staphylococcus aureus ATCC 13150 assessed as growth inhibition at 30 ug/disk after 18 hr by disk diffusion method; details: ATCC 13150, 18 h, read-out: IZ

Structure (SMILES)	inhibition zone (IZ) (Escherichia coli [1]) [mm]	inhibition zone (IZ) (Salmonella typhimurium [2]) [mm]	inhibition zone (IZ) (Streptococcus pyogenes [3]) [mm]	inhibition zone (IZ) (Staphylococcus aureus [4]) [mm]	MIC (Escherichia coli [5]) [µg/mL]	MIC (Salmonella typhimurium [6]) [µg/mL]	MIC (Streptococcus pyogenes [7]) [µg/mL]	MIC (Staphylococcus aureus [8]) [µg/mL]	zone of inhibition at 30 µg/disc (Escherichia coli [9]) [mm]	zone of inhibition at 30 µg/disc (Salmonella typhimurium [10]) [mm]	zone of inhibition at 30 µg/disc (Streptococcus pyogenes [11]) [mm]	zone of inhibition at 30 µg/disc (Staphylococcus aureus [12]) [mm]
CC(C)CCC[C@@H](C)[C@H]1CC[C@H]2[C@@H]3C/C(=N\NC(=S)NC4CCCCC4)C4C[C@@H](Cl)CC[C@]4(C)[C@H]3CC[C@]12C (some centres undefined)	11.4	11.5	10.5	11.2	–	–	–	–	–	–	–	–
CC(C)CCC[C@@H](C)[C@H]1CC[C@H]2[C@@H]3C/C(=N\N=C4/SCC(=O)N4C4CCCCC4)C4C[C@@H](Cl)CC[C@]4(C)[C@H]3CC[C@]12C (some centres undefined)	22.8	19.6	21.7	20.6	32 (≈ 51.9 µM)	32 (≈ 51.9 µM)	32 (≈ 51.9 µM)	64 (≈ 104 µM)	–	–	–	–
CC(C)CCC[C@@H](C)[C@H]1CC[C@H]2[C@@H]3C/C(=N\N=C4/SCC(=O)N4C4CCCCC4)C4CCCC[C@]4(C)[C@H]3CC[C@]12C (some centres undefined)	14	13.2	14.2	13.8	128 (≈ 220 µM)	512 (≈ 880 µM)	128 (≈ 220 µM)	64 (≈ 110 µM)	–	–	–	–
CC(=O)O[C@H]1CC[C@@]2(C)C(C1)/C(=N/NC(=S)NC1CCCCC1)C[C@H]1[C@@H]3CC[C@H]([C@H](C)CCCC(C)C)[C@@]3(C)CC[C@@H]12 (some centres undefined)	13.6	10.6	12.2	11.6	–	–	–	–	–	–	–	–
CC(=O)O[C@H]1CC[C@@]2(C)C(C1)/C(=N/N=C1\SCC(=O)N1C1CCCCC1)C[C@H]1[C@@H]3CC[C@H]([C@H](C)CCCC(C)C)[C@@]3(C)CC[C@@H]12 (some centres undefined)	20.8	19.2	21.6	18.8	32 (≈ 50 µM)	32 (≈ 50 µM)	64 (≈ 100 µM)	32 (≈ 50 µM)	–	–	–	–
CC1(C)S[C@@H]2[C@H](NC(=O)[C@H](N)c3ccc(O)cc3)C(=O)N2[C@H]1C(=O)O [AMOXICILLIN]	–	–	–	–	32 (≈ 87.6 µM)	32 (≈ 87.6 µM)	32 (≈ 87.6 µM)	32 (≈ 87.6 µM)	20	17.2	18.2	17
CC(C)CCC[C@@H](C)[C@H]1CC[C@H]2[C@@H]3C/C(=N\NC(=S)NC4CCCCC4)C4CCCC[C@]4(C)[C@H]3CC[C@]12C (some centres undefined)	11.6	10.6	9.8	9.6	–	–	–	–	–	–	–	–
